Measurements from BindingDB's records for doi:10.1046/j.1440-1681.1999.03022.x (University of Melbourne, 1999).
pKi: −log10 of the molar value.

Target: T1, Promotilin (Oryctolagus cuniculus, UniProt P27114)
T1 sequence (P27114 whole entry): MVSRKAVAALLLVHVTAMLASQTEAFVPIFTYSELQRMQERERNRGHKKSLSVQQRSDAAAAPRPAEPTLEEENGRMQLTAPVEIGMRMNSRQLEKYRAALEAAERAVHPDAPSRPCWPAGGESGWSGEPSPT

pKi | Structure (SMILES)
6.80 | C[N+](C)(C)CCOC(N)=O [(2-Hydroxyethyl)trimethyl ammonium chloride carbamate]
7.50 | CC[C@H]1OC(=O)[C@H](C)[C@@H](O[C@H]2C[C@@](C)(OC)[C@@H](O)[C@H](C)O2)[C@H](C)[C@@H](O[C@@H]2O[C@H](C)C[C@H](N(C)C(C)C)[C@H]2O)[C@@]2(C)CC(C)=C(O2)[C@H](C)C(=O)[C@]1(C)OC [Mitemcinal]
8.40 | CC[C@H](C)[C@H](NC(=O)[C@@H]1CCCN1C(=O)[C@@H](NC(=O)[C@@H](N)Cc1ccccc1)C(C)C)C(=O)N[C@@H](Cc1ccccc1)C(=O)N[C@H](C(=O)N[C@@H](Cc1ccc(O)cc1)C(=O)NCC(=O)N[C@@H](CCC(=O)O)C(=O)N[C@@H](CC(C)C)C(=O)N[C@@H](CCC(N)=O)C(=O)N[C@@H](CCCNC(=N)N)C(=O)N[C@@H](CCSC)C(=O)N[C@@H](CCC(N)=O)C(=O)N[C@@H](CCC(=O)O)C(=O)N[C@@H](CCCCN)C(=O)N[C@@H](CCC(=O)O)C(=O)N[C@@H](CCCNC(=N)N)C(=O)N[C@@H](CC(N)=O)C(=O)N[C@@H](CCCCN)C(=O)NCC(=O)N[C@@H](CCC(N)=O)C(=O)O)[C@@H](C)O [CAS_52906-92-0]
6.00 | CC[C@H]1OC(=O)[C@H](C)[C@@H](O[C@H]2C[C@@](C)(OC)[C@@H](O)[C@H](C)O2)[C@H](C)[C@@H](O[C@H]2O[C@@H](C)C[C@@H](N(C)C)[C@@H]2O)[C@](C)(O)C[C@@H](C)C(=O)[C@H](C)[C@@H](O)[C@]1(C)O [(3R,4S,5S,6R,7R,9R,11R,12R,13S,14R)-6-{[(2R,3S,4R,6S)-4-(dimethylamino)-3-hydroxy-6-methyloxan-2-yl]oxy}-14-ethyl-7,12,13-trihydroxy-4-{[(2R,4R,5S,6S)-5-hydroxy-4-methoxy-4,6-dimethyloxan-2-yl]oxy}-3,5,7,9,11,13-hexamethyl-1-oxacyclotetradecane-2,10-dione]
